In brackets after ≈: the same amount, converted by molar mass. Like-named read-outs stand apart in the source and are kept apart here.
Legend:
[1] = test system: rainbow trout erythrocytes
Protocol: The filtrate from water samples collected on Feb. […] Environmental water samples were allowed to thaw to room temperature and passed through a Sep-Pak Plus tC18 disposable cartridge (Waters Corp., Milford Mass.), attached to a vacuum manifold. The column was pre-equilibrated with methanol (20 ml) followed by H2O (20 ml). The cartridges were eluted with the following concentrations of MeOH/H2O: 100% H2O, 40%, 60%, 80%, and 100% MeOH (12 ml ea^−1). An aliquot of each elution was diluted, using Tris buffer +CaCl2, to give final dilutions ranging from 6 to 60% of original concentrations. […] The occurrence of hemolytic activity was determined by the absorbance of released hemoglobin, measured at 540 nm. Saponin (10 μg) served as a positive hemolysin control. Treatments were run in quadruplicate.
A hemolytic assay based on the lysis of fish erythrocytes was utilized to screen for bioactive materials. Cultures and culture fractions that were positive in the hemolytic assay were tested further using assays for ichthyotoxicity and cytotoxicity.
Blood was extracted from the caudal vein of rainbow trout (Oncorhynchus mykis) provided by the Center of Marine Biotechnology's Aquaculture Research Center. Needles were heparin (Sigma Chemical Co., St. Louis Mo.) treated and 10 units ml^−1 of additional heparin was added to whole blood samples to prevent clotting. […] Buffer pH was adjusted to 7.4 at 10° C. with 1N HCl, then filter sterilized (0.22 μm). […] Suspensions were stored at 4° C. for no longer than 10 days.
Hemolytic assays were performed by diluting test material in Tris buffer +CaCl2 (100 μl total) and adding this to a 5% erythrocyte suspension (100 μl). […] Assays were incubated on an orbital shaker (80-100 rpm) at 20° C. for 1 hour. Plates were then centrifuged at 2500 g for 5 min. and the supernatant (100 μl) was transferred to another flat bottom 96 well polystyrene plate, where the absorbance of released hemoglobin was read at 540 nm. Saponin (10 μg) (from Quillaja bark; Sigma Chemical Co., St. Louis Mo.) was used as a positive hemolysin control All treatments were run in quadruplicate.
LC50values and ranges were determined by Probit analysis (SPSS Base 10.0, SPSS Inc., Chicago Ill.).
Blood was extracted from the caudal vein of rainbow trout (Oncorhynchus mykis). […] Buffer pH was adjusted to 7.4 at 10° C. with 1N HCl, then filter sterilized (0.22 um). […] Blood suspensions were stored at 4° C. for no longer than 10 days.
Hemolysis assays were performed by diluting test material in Tris buFFer +CaCl2 (100 ul) and adding this to 100 ul of a 5% erythrocyte suspension for a total assay volume of 200 ul. […] Plates were incubated on an orbital shaker (80-100 rpm) at 20° C. for 1 hour. Plates were then centrifuged at 2000 g for 5 min. and the supernatant (100 ul) was transferred to a new flat bottom 96 well polystyrene plate, where the absorbance of released hemoglobin was read at 540 nm. Saponin (from Quillaja bark; Sigma Chemical Co., St. Louis Mo.) was used as a positive hemolysin control. Percent hemolysis (0-100%) was calculated from comparison to un-treated controls and samples treated with 10 ug saponin. All treatments were run in quadruplicate.
Hemolytic LC50 values were calculated from a dilution series of KmTx 2 and amphotericin B. LC50 values and ranges were determined by Probit analysis using a SPSS Base 10.0 statistical software package (SPSS Inc., Chicago, Ill.).

[2] = for % DECREASE of measured free copper: n = 2
Protocol: The first experiment involved the addition of EDTA ([…]) [as EDTA +4 Na·2 H2O ] to 0.9% NaCl solutions containing CuSO4·5 H2O (0.1, 0.5, 2.5, or 10 mg L^−1 Cu). Free Cu was measured using the porphyrin method (range 0-210 μg L^−1 ) (HACH, Loveland Colo.). […] Each solution, with and without EDTA, was assayed for hemolytic activity.

[3] = test system: Aspergillus niger (ATCC 1004); test: Anti-fungal broth microdilution assay (filamentous fungi); format: cell-based
Protocol: (§1) The following fungal strains were purchased from the American Type Culture Collection (Manassas, Va.), Aspergillus niger (ATCC 1004) as a representative filamentous fungi, and Candida albicans (ATCC 14053) as a representative yeast. Assays were performed according to the following National Committee for Clinical Laboratory Standards documents; M27-A2 Reference Method for Broth Dilution Antifungal Susceptibility Testing of Yeasts; Approved Standard—Second Edition([NCCLS, 2002), and M38-A Reference Method for Broth Dilution Antifungal Susceptibility Testing of Filamentous Fungi; Approved Standard (NCCLS, 2002). Procedures for the broth microdilution modification were followed for both species with the following exceptions; A. niger stocks were maintained on Potato Dextrose Agar at 25° C., while C. albicans was maintained on Yeast Malt Agar at 28° C., both according to ATCC recommendations. Amphotericin B was used as a positive control. Microdilution assays were performed in HyQ-RPMI-1640 media (HyClone, Logan, Utah.), with 2.05 mM L-glutamine, without sodium bicarbonate, pH 7.2 using dilutions of 1 mg/ml DMSO stocks of KmTx 2 and amphotericin B.
(§2) The following concentrations were tested for both KmTx2 and amphotericin B: 0.0625, 0.125, 0.25, 0.5, 1, 2, 4, 8, and 16 μg/ml. A maximum of 1.6% DMSO was added to any given well. Plates were incubated at 25 and 28° C., respectively, for A. niger and C. albicans. […] Amphotericin B and all culture media were purchased from Sigma-Aldrich (St. Louis, Mo.).

[4] = test system: Candida albicans (ATCC 14053); test: Anti-fungal broth microdilution assay (yeast); format: cell-based
Protocol: as §1, §2

[5] = test system: rainbow trout erythrocytes; test: Membrane lipid inhibition assay of KmTx 2 hemolytic activity; format: cell-based; conditions: for inhibition of the hemolytic activity of KmTx 2 by co-incubation: 0.001-10 μM sterol or lipid, KmTx 2 0.1, 0.5, 1 μg/ml
Protocol: To assess the inhibitory effects of exogenous membrane lipids on KmTx 2 hemolytic activity, the following sterols and lipids were tested: cholesterol, ergosterol, gymnodinosterol, and both natural and synthetic phosphatidylcholine. Cholesterol (5-cholesten-3β-ol) and L-α-phosphatidylcholine (brain, porcine) were purchased from Avanti Polar Lipids Inc. (Alabaster, Ala.); ergosterol (5,7,22-cholestatrien-24β-methyl-3β-ol) was purchased from Steraloids, Inc. (Newport, R.I.). Synthetic phosphatidylcholine (L-α-lecithin (β-γ-dipalmitoyl) was purchased from Calbiochem (San Diego, Calif.), Gymnodinosterol was isolated from filtered K. micrum (CCMP 2282) cells (isolation described in supplemental materials). KmTx 2: 0, 0.1, 0.5, and 1 μg/ml was added to solutions of Tris buffer +CaCl2 with either: 0, 0.001, 0.01, 0.1, 1 or 10 μM selected sterol or membrane lipid. Stock solutions of toxin and lipid were made in methanol and no more than 1% of each (2% total) was added to any given well. After brief mixing, these solutions were added 1: 1 with a diluted suspension of rainbow trout erythrocytes and hemolytic activity was assessed as described in supplemental materials.

[6] = test system: rat embryonic fibroblast (REF 52) cells; test: Ion permeation measurement, Ca^2+ flux with fura-2 (fibroblasts); format: cell-based; conditions: 0.2 μM
Protocol: The following cell types were tested for toxicity due to KmTx 2; rat embryonic fibroblast, rat intestional epithelial, and isolated rabbit primary sensory neurons. Cells were cultured on No. 1 glass coverslips and loaded with fluorescent indicator (fura-2) and were examined on an inverted epifluorescence microscope (model Diaphot; 40×CF Fluor objective, N.A. 1.30; Nikon Corp.) coupled to a spectrofluorometer (model CM1T10I, SPEX Industries) operating in the microfluorometry mode. Cells were bathed in 4 ml of Dulbecco's modified Eagle's medium (DMEM) buffered with HEPES (pH 7.4). KmTx 2 (stock solution in DMSO) was directly bath-applied with gentle convective mixing. Fura-2 was alternately excited at 340 and 380 nm. Fluorescence emission was passed through a 510-nm bandpass filter before photometric quantitation. DATAMAX software (SPEX Industries) was used for data acquisition and instrument control. Origin software (OriginLab Corp.) was used for data reduction and analysis

[7] = any concentration (0.0625-16 μg/ml) after 24 hours

O.O.O=C([O-])CN(CCN(CC(=O)[O-])CC(=O)[O-])CC(=O)[O-].[Na+].[Na+].[Na+].[Na+] [EDTA, EDTA +4 Na·2 H2O]
effect of EDTA on hemolytic activity due to Cu alone [1]: completely remove hemolytic activity | free Cu chelated ([2]; EDTA 2 mM, all concentrations tested): > 90% | % DECREASE of measured free copper ([2]; copper 0.2 mg L^−1, EDTA 2 mM): 96.3% | % DECREASE of measured free copper ([2]; copper 1 mg L^−1, EDTA 2 mM): 95.9% | % DECREASE of measured free copper ([2]; copper 5 mg L^−1, EDTA 2 mM): 90.4% | % DECREASE of measured free copper ([2]; copper 20 mg L^−1, EDTA 2 mM): 92.6%

C[C@@H]1[C@H](O)[C@@H](C)/C=C/C=C/C=C/C=C/C=C/C=C/C=C/[C@H](O[C@@H]2O[C@H](C)[C@@H](O)[C@H](N)[C@@H]2O)C[C@@H]2O[C@](O)(C[C@@H](O)C[C@@H](O)[C@H](O)CC[C@@H](O)C[C@@H](O)CC(=O)O[C@H]1C)C[C@H](O)[C@H]2C(=O)O [amphotericin B, reference compound]
hemolytic LC50 ([1]; probit analysis of dilution series): 3.759 µg/mL | growth [3, 7]: no growth was observed | Minimal inhibitory concentration (MIC) ([3]; lowest dose with no growth after 96 hours, 25° C.): 0.5 µg/mL (≈ 0.541 µM) | growth [4, 7]: no growth was observed | Minimal inhibitory concentration (MIC) ([4]; lowest dose with no growth after 96 hours, 28° C.): 0.125 µg/mL (≈ 0.135 µM)

CC(C)CCC[C@@H](C)[C@H]1CC[C@H]2[C@@H]3CC=C4C[C@@H](O)CC[C@]4(C)[C@H]3CC[C@]12C [cholesterol, 5-cholesten-3β-ol]
inhibition of the hemolytic activity of KmTx 2 by co-incubation [5]: inhibited | concentration at which complete inhibition was reached ([5]; co-incubation with KmTx 2): ca. 10 μM

CC(C)[C@@H](C)/C=C/[C@@H](C)[C@H]1CC[C@H]2C3=CC=C4C[C@@H](O)CC[C@]4(C)[C@H]3CC[C@]12C [ergosterol, 5,7,22-cholestatrien-24β-methyl-3β-ol]
inhibition of the hemolytic activity of KmTx 2 by co-incubation [5]: inhibited | concentration at which inhibition plateaued ([5]; co-incubation with KmTx 2): ca. 1 μM

CC(C)[C@H](C)C=C[C@@H](C)[C@H]1CCC2=C3CC[C@H]4[C@H](C)[C@@H](O)CC[C@]4(C)[C@H]3CC[C@@]21C [gymnodinosterol, (24S)-4α-methyl-5α-ergosta-8(14),22-dien-3β-ol]
inhibition of the hemolytic activity of KmTx 2 by co-incubation [5]: not inhibited

CCCCCCCCCCCCCCCC(=O)OC[C@H](COP(=O)([O-])OCC[N+](C)(C)C)OC(=O)CCCCCCCCCCCCCCC [synthetic dipalmitoyl (16:0), L-α-lecithin (β-γ-dipalmitoyl)]
inhibition of the hemolytic activity of KmTx 2 by co-incubation [5]: no inhibition

NC(=O)CC[C@@H]1NC(=O)[C@H](Cc2ccccc2)NC(=O)[C@H](Cc2ccc(O)cc2)NC(=O)[C@@H](N)CSSC[C@@H](C(=O)N2CCC[C@H]2C(=O)N[C@@H](CCCN=C(N)N)C(=O)NCC(N)=O)NC(=O)[C@H](CC(N)=O)NC1=O [vasopressin, reference compound]
cytosolic Ca^2+ levels [6]: spike in cytosolic Ca^2+ levels followed by rapid decline to level above baseline

L-α-phosphatidylcholine (brain, porcine) [natural brain phosphotidylcholine]
inhibition of the hemolytic activity of KmTx 2 by co-incubation [5]: no inhibition

Source: US20050209104A1, “Dinoflagellate karlotoxins, methods of isolation and uses thereof” (priority 2002, published 2005)
